Test results taken from ChEMBL document CHEMBL4715709, “Synthesis and evaluation of anticonvulsant properties of new N-Mannich bases derived from 3-(1-phenylethyl)- and 3-benzyl-pyrrolidine-2,5-dione” (Bioorg Med Chem Lett, 2016).
Calls of active or inactive are those of the source. The calls are words filed in the database; no cut-off is given here.

Tests used:
[1] = tested on: Mus musculus; assay: Anti-convulsant activity in ip dosed mouse assessed as protection against psychomotor seizures measured after 0.25 hrs by 6 Hz limbic seizure test; assay type: functional
[2] = tested on: Mus musculus; assay: Anticonvulsant activity in ip dosed mouse assessed as protection against ScPTZ-induced epilepsy measured after 0.25 hrs by subcutaneous pentylenetetrazole test; assay type: functional
[3] = Protection index, ratio of TD50 for neurotoxicity in ip dosed mouse to ED50 for anticonvulsant activity in ip dosed mouse measured after 0.5 hrs by 6 Hz limbic seizure test; assay type: toxicity, organism-based; details: in vivo, read-out: PI
[4] = tested on: Mus musculus; assay: Anticonvulsant activity in ip dosed mouse assessed as minimum dose required for protection against ScPTZ-induced epilepsy measured after 4 hrs by subcutaneous pentylenetetrazole test; assay type: functional
[5] = species: Homo sapiens; assay: Inhibition of Sodium channel site 2 (unknown origin) at 100 uM
[6] = tested on: Mus musculus; assay: Anticonvulsant activity in ip dosed mouse assessed as minimum dose required for protection against ScPTZ-induced epilepsy measured after 0.5 hrs by subcutaneous pentylenetetrazole test; assay type: functional
[7] = tested on: Mus musculus; assay: Anti-convulsant activity in mouse assessed as protection of animals against psychomotor seizures at 100 mg/kg, ip measured after 4 hrs by 6 Hz limbic seizure test; assay type: functional
[8] = tested on: Mus musculus; assay: Anticonvulsant activity in ip dosed mouse assessed as minimum dose required for protection against tonic-clonic seizures measured after 0.5 hrs by maximal electroshock seizure test; assay type: functional
[9] = Neurotoxicity activity in ip dosed mouse assessed as induction of motor impairment by rotarod test; assay type: toxicity, organism-based; details: in vivo
[10] = tested on: Mus musculus; assay: Anti-convulsant activity in ip dosed mouse assessed as protection against psychomotor seizures measured after 0.5 hrs by 6 Hz limbic seizure test; assay type: functional
[11] = Neurotoxicity in ip dosed mouse assessed as minimum dose required for induction of motor impairment measured after 0.5 hrs by rotarod test; assay type: toxicity, organism-based; details: in vivo
[12] = Protection index, ratio of TD50 for neurotoxicity in ip dosed mouse to ED50 for anticonvulsant activity in ip dosed mouse measured after 0.5 hrs by subcutaneous pentylenetetrazole test; assay type: toxicity, organism-based; details: in vivo, read-out: PI
[13] = tested on: Mus musculus; assay: Anticonvulsant activity in ip dosed mouse assessed as protection against ScPTZ-induced epilepsy measured after 0.5 hrs by subcutaneous pentylenetetrazole test; assay type: functional
[14] = species: Homo sapiens; assay: Inhibition of L-type calcium channel (unknown origin) at 100 uM
[15] = tested on: Mus musculus; assay: Anticonvulsant activity in mouse assessed as protection against tonic-clonic seizures at 300 mg/kg, ip measured after 4 hrs by maximal electroshock seizure test; assay type: functional, organism-based
[16] = Neurotoxicity in mouse assessed as induction of motor impairment at 300 mg/kg, ip measured after 4 hrs by rotarod test; assay type: toxicity, organism-based; details: in vivo
[17] = species: Homo sapiens; assay: Inhibition of GABAA receptor (unknown origin) at 100 uM
[18] = species: Homo sapiens; assay: Inhibition of NMDA receptor (unknown origin) at 100 uM
[19] = tested on: Mus musculus; assay: Anti-convulsant activity in mouse assessed as protection of animals against psychomotor seizures at 100 mg/kg, ip measured after 0.5 hrs by 6 Hz limbic seizure test; assay type: functional
[20] = tested on: Mus musculus; assay: Anticonvulsant activity in ip dosed mouse assessed as protection against tonic-clonic seizures by maximal electroshock seizure test; assay type: functional
[21] = tested on: Mus musculus; assay: Anticonvulsant activity in ip dosed mouse assessed as protection against ScPTZ-induced epilepsy by subcutaneous pentylenetetrazole test; assay type: functional
[22] = Protection index, ratio of TD50 for neurotoxicity in ip dosed mouse to ED50 for anticonvulsant activity in ip dosed mouse by subcutaneous pentylenetetrazole test; assay type: toxicity, organism-based; details: in vivo, read-out: PI
[23] = Protection index, ratio of TD50 for neurotoxicity in ip dosed mouse to ED50 for anticonvulsant activity in ip dosed mouse by maximal electroshock seizure test; assay type: toxicity, organism-based; details: in vivo, read-out: PI
[24] = Protection index, ratio of TD50 for neurotoxicity in ip dosed mouse to ED50 for anticonvulsant activity in ip dosed mouse measured after 4 hrs by subcutaneous pentylenetetrazole test; assay type: toxicity, organism-based; details: in vivo, read-out: PI
[25] = Neurotoxicity in mouse assessed as induction of motor impairment at 300 mg/kg, ip measured after 0.5 hrs by rotarod test; assay type: toxicity, organism-based; details: in vivo
[26] = tested on: Mus musculus; assay: Anticonvulsant activity in ip dosed mouse assessed as minimum dose required for protection against tonic-clonic seizures measured after 4 hrs by maximal electroshock seizure test; assay type: functional
[27] = Neurotoxicity in ip dosed mouse assessed as minimum dose required for induction of motor impairment measured after 4 hrs by rotarod test; assay type: toxicity, organism-based; details: in vivo
[28] = tested on: Mus musculus; assay: Anticonvulsant activity in mouse assessed as protection against tonic-clonic seizures at 300 mg/kg, ip measured after 0.5 hrs by maximal electroshock seizure test; assay type: functional, organism-based
[29] = tested on: Mus musculus; assay: Anticonvulsant activity in ip dosed mouse assessed as protection against ScPTZ-induced epilepsy measured after 4 hrs by subcutaneous pentylenetetrazole test; assay type: functional

CCC1(C)CC(=O)NC1=O (stereo not given) [ETHOSUXIMIDE]
ED50 [1]: > 200 mg/kg
ED50 [2]: 140 mg/kg

CC(c1ccccc1)C1CC(=O)N(CN2CCN(C)CC2)C1=O.Cl (racemic)
selectivity ratio at 0.5 h [3]: 6.36
MED=>50 [4]: 300 mg/kg
inhibition [5]: < 50%
MED=>50 [6]: 30 mg/kg
Activity [7]: 0%
minimum effective dose [8]: 300 mg/kg
TD50 [9]: 229 mg/kg
ED50 [10]: 36 mg/kg
MTD50 [11]: 300 mg/kg
selectivity ratio at 0.5 h [12]: 5.87
ED50 [13]: 39 mg/kg
inhibition [14]: < 50%
Activity [15]: inactive
Activity [16]: Non-Toxic
inhibition [17]: < 50%
inhibition [18]: < 50%
Activity [19]: 100%

O=C1CC(C(c2ccccc2)c2ccccc2)C(=O)N1CN1CCN(c2cccc(C(F)(F)F)c2)CC1 (stereo not given)
ED50 [20]: 101 mg/kg
ED50 [21]: 73 mg/kg
TD50 [9]: > 500 mg/kg
selectivity ratio [22]: > 6.84
selectivity ratio [23]: > 4.95

O=C1CC(Cc2ccccc2)C(=O)N1CN1CCN(c2ccc(Cl)c(Cl)c2)CC1 (racemic)
selectivity ratio at 4 h [24]: 2.32
MED=>50 [4]: 100 mg/kg
MED=>50 [6]: 300 mg/kg
Activity [25]: Non-Toxic
Activity [7]: 0%
TD50 [9]: 246 mg/kg
MED=>50 [26]: 300 mg/kg
MTD50 [27]: 300 mg/kg
Activity [28]: inactive
ED50 [29]: 106 mg/kg
Activity [19]: 0%
